{
  "source": "patent US20190314198A1",
  "about": "“Topical Ocular Delivery Methods and Devices for Use in the Same” (Kedalion Therapeutics, Inc., priority 2018, published 2019)",
  "key": {"eye of subjects": {"system": "eye of subjects", "test": "Presbyopia: pupil diameter after self-administered pilocarpine micro-dose", "assay_type": "in vivo, human", "description": "A 10 μl micro-dose of a 1% pilocarpine solution was self-administered using an electromagnetic actuated fluid delivery device, e.g., as described above, by three subjects to their own eye. The age range of the subjects was 52 years to 68 years, and all subjects were male. The pilocarpine micro-dose was self-administered by the subjects.\nBaseline, pre-dose values of pupil diameter and near visual acuity in both eyes prior to dosing was measured for all subjects, and then following the baseline measurements, the subjects were dosed in only one eye (the eye with the poorer visual acuity) with the micro-dose pilocarpine solution. Approximately 45 to 60 minutes after dosing, pupil diameter and near visual acuity were again tested. Near visual acuity was measured using a Snellen card at a distance of 40 cm. A tabulation of results is given below in Table A."}, "[1]": {"system": "patients diagnosed with primary open angle glaucoma", "test": "Trial 2: intraocular pressure reduction (Goldmann applanation tonometry), AcuStream versus standard eye dropper", "assay_type": "in vivo, human", "description": "Trial 2 compared the efficacy (dose volume equivalence) of 0.005% w/v latanoprost for intraocular pressure reduction when delivered via AcuStream™ (pre-trial calibration volume=9.2 μl) versus the standard eye dropper for topical drug delivery (approximate volume=30 μl).\nPatients included in Trial 2 have previously been diagnosed with primary open angle glaucoma on the basis of intraocular pressure and visual field testing, fundus examination or optical coherence tomography (OCT) data and are currently on prostaglandin analog medical therapy. Patients with corneal abnormalities that would interfere with accurate IOP measurements with applanation tonometry, use of an oral or topical ophthalmic steroids within the past 14 days from screening date, any active ocular surface or anterior segment disease, or progressive field loss during the past year were excluded from the study. Thirteen men and five women participated in the trial. […]\nAfter performing slit lamp examinations on each patient to verify eligibility and obtaining informed consent, intraocular pressure (IOP) was measured by a sole experienced examiner who was blind to the randomized conditions. […]\nLatanoprost solution was administered by a sole ophthalmologist to both eyes of each patient, based on the pre-determined randomized condition."}},
  "data": [
    {"smiles": "CC[C@@H]1C(=O)OC[C@@H]1Cc1cncn1C", "note": "[pilocarpine]", "values": [
      {"measurement": "mean reduction in pupil diameter", "setting": "eye of subjects; dosed eye, 10 μl micro-dose of 1% solution, all 3 subjects", "value": 0.70, "unit": "mm"},
      {"measurement": "miotic effect in the non-dosed eye", "setting": "eye of subjects; non-dosed contralateral eye", "value": "no miotic effect"}
    ]},
    {"smiles": "CC(C)OC(=O)CCC/C=C\\C[C@@H]1[C@@H](CC[C@@H](O)CCc2ccccc2)[C@H](O)C[C@@H]1O", "note": "[latanoprost]", "values": [
      {"measurement": "difference in IOP reduction between AcuStream and standard dropper groups", "setting": "[1]; Wilcoxon Ranked Sum test, p=0.3447", "value": "no statistically significant differences"},
      {"measurement": "post-instillation IOP of a single patient outlier (OD)", "setting": "[1]; control group (standard eye dropper), baseline IOP 30 mm Hg", "value": 17, "unit": "mm Hg"}
    ]}
  ]
}
